The text below walks through data of US7759331B2, “Pyridine-containing macroheterococylic compounds as kinase inhibitors” (Janssen Pharmaceutica NV, priority 2006, dated 2010).

Holding throughout (assay): Protein kinase selectivity panel
What all share (details): 1.0 μM compound, 10 μM ATP

One test relates to p70S6K(h). In kind it is biochemical, human. On the procedure:
(§1) Protein kinase selectivity assays were performed as described in the scientific literature (Davies, S. P., et al., Biochem. J. 2000, 351, 95-105). Briefly, protein kinases were assayed for their ability to phosphorylate the appropriate peptide/protein substrates in the presence of 1.0 μM compound. Assays were done using 10 μM ATP and were linear with respect to time. The protein kinase selectivity assays were performed by Upstate Cell Signaling Solutions using Upstate's KinaseProfiler™ Selectivity Screening Service.

The next test deals with Abl(h) (Homo sapiens, UniProt P00519). Format: biochemical. The method, then: as §1
For the next test, the target named is Blk(m) (Mus musculus, UniProt P16277). In kind it is biochemical. On the procedure: as §1
Sequence of Blk(m) (P16277 whole entry): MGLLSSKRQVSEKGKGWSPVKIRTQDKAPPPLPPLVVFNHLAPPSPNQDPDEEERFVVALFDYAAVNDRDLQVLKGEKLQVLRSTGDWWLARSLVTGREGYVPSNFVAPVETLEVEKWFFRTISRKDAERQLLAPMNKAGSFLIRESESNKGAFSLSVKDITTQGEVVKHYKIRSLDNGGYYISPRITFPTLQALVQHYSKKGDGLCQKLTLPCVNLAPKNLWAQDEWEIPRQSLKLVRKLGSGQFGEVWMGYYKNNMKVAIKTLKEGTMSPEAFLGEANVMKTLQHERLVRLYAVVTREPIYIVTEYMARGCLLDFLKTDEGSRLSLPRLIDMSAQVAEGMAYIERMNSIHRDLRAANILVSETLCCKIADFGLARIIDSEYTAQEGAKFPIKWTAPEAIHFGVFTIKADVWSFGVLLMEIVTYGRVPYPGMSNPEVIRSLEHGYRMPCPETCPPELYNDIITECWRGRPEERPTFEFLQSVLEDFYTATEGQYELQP
The target in another test is CDK5/p35(h) (Homo sapiens, UniProt Q00535). In kind it is biochemical. The method, then: as §1
Sequence of CDK5/p35(h) (Q00535 whole entry): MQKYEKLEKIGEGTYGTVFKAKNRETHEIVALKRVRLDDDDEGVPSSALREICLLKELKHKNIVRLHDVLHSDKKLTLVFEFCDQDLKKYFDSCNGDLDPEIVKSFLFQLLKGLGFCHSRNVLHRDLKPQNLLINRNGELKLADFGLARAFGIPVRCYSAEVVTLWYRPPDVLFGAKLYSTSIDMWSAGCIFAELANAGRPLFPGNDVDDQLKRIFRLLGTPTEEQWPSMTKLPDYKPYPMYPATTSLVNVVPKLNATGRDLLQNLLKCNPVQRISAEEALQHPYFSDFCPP
Sequence of CDK5/p35(h) (Q15078 whole entry partner): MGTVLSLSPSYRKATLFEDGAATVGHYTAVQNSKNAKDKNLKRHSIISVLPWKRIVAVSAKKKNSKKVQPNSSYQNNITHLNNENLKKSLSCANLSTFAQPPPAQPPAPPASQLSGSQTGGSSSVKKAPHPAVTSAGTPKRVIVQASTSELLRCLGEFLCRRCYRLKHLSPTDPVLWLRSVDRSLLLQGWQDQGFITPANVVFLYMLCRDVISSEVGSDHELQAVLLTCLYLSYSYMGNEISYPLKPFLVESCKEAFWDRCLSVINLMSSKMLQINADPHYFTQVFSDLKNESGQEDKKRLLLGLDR
The next test deals with T1, IKKβ(h) (Homo sapiens, UniProt O14920).
T1 sequence (O14920 1-756): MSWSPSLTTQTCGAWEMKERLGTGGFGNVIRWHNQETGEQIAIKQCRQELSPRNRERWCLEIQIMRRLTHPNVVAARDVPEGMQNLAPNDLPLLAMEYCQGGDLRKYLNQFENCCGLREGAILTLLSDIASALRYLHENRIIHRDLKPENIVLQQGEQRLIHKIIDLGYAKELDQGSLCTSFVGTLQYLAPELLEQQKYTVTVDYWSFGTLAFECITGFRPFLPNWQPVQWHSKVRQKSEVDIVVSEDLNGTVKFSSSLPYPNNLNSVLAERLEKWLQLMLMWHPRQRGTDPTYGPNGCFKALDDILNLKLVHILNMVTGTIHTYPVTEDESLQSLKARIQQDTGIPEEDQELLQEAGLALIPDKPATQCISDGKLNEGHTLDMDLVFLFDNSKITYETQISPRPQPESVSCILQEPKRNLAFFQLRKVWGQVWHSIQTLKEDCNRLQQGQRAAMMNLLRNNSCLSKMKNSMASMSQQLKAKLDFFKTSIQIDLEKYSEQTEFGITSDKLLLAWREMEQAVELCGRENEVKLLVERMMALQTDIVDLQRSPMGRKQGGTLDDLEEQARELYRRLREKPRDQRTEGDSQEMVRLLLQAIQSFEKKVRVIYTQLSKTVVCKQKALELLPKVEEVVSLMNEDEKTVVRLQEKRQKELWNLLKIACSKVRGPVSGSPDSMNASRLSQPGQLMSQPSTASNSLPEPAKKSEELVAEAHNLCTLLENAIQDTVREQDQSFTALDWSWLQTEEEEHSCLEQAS
In kind it is biochemical. The method, then: as §1

The next test has as its target Lyn(h) (Homo sapiens, UniProt P07948). In kind it is biochemical. On the procedure: as §1
Another test deals with T2, MKK6(h) (Homo sapiens, UniProt P52564).
T2 sequence (P52564 1-334): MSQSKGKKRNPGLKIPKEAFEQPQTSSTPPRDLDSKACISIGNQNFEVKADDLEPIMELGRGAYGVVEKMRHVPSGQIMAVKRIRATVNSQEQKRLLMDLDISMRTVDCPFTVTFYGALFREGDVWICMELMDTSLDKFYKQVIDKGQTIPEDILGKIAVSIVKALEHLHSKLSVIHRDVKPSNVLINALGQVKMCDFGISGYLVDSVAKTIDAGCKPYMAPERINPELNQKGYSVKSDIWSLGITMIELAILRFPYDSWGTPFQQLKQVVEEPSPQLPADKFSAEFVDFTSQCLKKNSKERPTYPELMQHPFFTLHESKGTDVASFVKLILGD
In kind it is biochemical. The method, then:
as §1

Another test deals with PAR-1Bα(h) (Homo sapiens, UniProt Q7KZI7). Format: biochemical. On the procedure:
as §1

The next test has as its target PKCβII(h) (Homo sapiens, UniProt P05771). In kind it is biochemical. The method, then: as §1
The target in the next test is PKCθ(h) (Homo sapiens, UniProt Q04759). In kind it is biochemical. On the procedure:
as §1

The target of a further test is T3, PRAK(h) (Homo sapiens, UniProt Q8IW41).
T3 sequence (Q8IW41 1-473): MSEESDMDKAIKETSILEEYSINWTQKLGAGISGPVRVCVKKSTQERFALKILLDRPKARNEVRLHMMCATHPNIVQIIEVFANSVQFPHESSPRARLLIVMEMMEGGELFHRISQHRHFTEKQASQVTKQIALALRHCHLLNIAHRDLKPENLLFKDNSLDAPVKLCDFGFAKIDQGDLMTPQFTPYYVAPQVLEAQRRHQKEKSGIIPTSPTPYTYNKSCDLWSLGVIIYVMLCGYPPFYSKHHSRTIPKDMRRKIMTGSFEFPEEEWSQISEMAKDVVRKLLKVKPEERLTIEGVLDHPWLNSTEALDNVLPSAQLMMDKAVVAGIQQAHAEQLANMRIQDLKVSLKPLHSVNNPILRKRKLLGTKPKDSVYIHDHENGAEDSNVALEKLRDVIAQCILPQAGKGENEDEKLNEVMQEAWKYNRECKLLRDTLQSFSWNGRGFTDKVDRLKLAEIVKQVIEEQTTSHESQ
Format: biochemical. The method, then:
as §1

The target of the next test is ROCK-II(h) (Homo sapiens, UniProt O75116). Format: biochemical. The method, then: as §1
Sequence of ROCK-II(h) (O75116 whole entry): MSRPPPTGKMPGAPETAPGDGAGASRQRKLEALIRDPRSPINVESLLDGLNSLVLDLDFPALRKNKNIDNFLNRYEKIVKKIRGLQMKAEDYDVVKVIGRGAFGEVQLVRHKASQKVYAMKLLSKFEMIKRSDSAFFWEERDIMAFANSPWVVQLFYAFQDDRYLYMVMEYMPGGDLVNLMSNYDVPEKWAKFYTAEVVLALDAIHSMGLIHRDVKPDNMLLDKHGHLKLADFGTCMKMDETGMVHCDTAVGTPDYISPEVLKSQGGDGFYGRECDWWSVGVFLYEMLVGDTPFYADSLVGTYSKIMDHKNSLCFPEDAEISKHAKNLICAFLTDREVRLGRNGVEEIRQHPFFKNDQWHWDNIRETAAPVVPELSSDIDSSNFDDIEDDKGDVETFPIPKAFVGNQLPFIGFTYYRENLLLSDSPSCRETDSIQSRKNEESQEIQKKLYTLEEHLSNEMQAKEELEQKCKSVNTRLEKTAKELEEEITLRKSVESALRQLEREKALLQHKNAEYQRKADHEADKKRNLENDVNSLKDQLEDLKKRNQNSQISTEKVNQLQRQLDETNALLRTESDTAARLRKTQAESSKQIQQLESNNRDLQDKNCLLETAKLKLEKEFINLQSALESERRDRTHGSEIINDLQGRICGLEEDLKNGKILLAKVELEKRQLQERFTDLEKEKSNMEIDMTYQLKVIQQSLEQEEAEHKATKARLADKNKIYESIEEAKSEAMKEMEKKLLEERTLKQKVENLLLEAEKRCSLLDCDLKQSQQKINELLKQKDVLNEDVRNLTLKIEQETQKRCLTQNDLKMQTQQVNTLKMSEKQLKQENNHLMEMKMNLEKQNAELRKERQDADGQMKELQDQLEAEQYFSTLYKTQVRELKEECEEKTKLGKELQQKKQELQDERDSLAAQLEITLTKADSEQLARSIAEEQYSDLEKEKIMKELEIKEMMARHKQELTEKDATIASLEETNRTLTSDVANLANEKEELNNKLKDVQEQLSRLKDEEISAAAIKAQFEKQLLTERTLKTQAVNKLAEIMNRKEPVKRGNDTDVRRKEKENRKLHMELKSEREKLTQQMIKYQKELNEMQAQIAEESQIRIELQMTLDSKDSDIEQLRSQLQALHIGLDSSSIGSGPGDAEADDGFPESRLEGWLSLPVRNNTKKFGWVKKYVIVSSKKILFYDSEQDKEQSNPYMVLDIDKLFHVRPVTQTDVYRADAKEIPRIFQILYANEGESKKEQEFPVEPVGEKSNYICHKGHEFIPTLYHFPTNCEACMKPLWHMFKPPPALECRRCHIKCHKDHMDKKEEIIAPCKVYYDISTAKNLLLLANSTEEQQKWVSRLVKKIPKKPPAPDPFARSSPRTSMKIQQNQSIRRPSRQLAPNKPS
The next test addresses ROCK-II(r) (Rattus norvegicus, UniProt Q62868). In kind it is biochemical. The method, then: as §1
A further test has as its target Rsk1(h) (Homo sapiens, UniProt Q15418). Format: biochemical. The method, then:
as §1

For the next test, the target named is Rsk1(r) (Rattus norvegicus, UniProt Q63531). Format: biochemical. On the procedure: as §1
Sequence of Rsk1(r) (Q63531 whole entry): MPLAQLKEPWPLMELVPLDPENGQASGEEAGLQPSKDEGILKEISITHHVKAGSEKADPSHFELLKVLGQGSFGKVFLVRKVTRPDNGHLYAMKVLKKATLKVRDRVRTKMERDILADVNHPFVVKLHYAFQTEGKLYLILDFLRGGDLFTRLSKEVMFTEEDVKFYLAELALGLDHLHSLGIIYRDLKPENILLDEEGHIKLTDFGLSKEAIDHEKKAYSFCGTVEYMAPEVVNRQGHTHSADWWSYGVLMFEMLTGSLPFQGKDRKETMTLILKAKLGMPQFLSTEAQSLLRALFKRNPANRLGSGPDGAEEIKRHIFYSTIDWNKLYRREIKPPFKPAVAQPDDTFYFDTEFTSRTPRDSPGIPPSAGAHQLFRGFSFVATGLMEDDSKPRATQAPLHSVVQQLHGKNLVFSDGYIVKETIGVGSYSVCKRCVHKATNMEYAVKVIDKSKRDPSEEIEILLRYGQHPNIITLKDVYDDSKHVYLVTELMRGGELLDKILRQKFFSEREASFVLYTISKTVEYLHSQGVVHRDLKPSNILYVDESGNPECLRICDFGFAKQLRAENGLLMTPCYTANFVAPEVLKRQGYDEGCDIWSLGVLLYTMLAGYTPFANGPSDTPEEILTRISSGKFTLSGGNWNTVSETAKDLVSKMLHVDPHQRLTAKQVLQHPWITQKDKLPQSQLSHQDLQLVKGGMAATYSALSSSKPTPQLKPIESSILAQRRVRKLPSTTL
The next test addresses Rsk2(h) (Homo sapiens, UniProt P51812). In kind it is biochemical. The method, then:
as §1

The next test concerns the target Syk(h) (Homo sapiens, UniProt P43405). In kind it is biochemical. On the procedure: as §1

Sequence of Rsk1(h) (Q15418 whole entry): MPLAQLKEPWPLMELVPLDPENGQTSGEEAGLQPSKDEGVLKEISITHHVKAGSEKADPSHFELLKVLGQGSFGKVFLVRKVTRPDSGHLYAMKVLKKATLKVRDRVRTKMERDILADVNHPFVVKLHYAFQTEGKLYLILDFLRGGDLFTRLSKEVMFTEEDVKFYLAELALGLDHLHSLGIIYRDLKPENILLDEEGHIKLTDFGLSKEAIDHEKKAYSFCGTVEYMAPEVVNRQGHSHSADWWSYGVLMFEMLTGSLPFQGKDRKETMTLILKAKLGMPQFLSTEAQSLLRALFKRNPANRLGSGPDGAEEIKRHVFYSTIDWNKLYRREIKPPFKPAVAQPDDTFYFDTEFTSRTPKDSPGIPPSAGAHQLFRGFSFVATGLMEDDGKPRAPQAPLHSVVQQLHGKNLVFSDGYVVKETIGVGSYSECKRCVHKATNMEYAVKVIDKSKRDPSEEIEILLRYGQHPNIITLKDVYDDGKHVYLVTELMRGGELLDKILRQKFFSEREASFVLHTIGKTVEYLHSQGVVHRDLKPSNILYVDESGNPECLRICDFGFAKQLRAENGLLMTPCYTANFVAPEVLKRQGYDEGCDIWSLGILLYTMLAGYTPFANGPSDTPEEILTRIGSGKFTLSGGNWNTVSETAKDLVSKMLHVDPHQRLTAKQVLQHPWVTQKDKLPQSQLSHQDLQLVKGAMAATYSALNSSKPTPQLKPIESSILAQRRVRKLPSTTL
Sequence of PKCθ(h) (Q04759 whole entry): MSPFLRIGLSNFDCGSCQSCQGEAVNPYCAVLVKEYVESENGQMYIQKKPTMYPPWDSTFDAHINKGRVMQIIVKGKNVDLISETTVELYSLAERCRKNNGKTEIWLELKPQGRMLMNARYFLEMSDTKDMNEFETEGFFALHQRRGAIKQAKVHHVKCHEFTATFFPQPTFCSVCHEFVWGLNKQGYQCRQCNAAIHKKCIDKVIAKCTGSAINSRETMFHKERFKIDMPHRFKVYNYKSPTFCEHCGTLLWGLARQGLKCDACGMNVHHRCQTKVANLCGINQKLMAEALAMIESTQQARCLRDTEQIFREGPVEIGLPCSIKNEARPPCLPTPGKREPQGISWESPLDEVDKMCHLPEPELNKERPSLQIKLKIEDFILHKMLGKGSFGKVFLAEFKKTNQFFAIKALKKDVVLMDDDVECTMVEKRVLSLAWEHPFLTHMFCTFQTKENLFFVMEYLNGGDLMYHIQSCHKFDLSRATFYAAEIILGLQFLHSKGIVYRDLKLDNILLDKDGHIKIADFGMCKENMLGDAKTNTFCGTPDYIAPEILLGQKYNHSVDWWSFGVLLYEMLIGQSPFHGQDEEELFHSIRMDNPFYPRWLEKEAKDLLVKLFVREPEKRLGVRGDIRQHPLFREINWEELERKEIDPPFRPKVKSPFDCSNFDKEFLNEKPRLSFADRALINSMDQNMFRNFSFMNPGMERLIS

As for `CN(C)c1cc2cc(n1)CCCn1cc(c3ccccc31)C1=C(C(=O)NC1=O)c1cn(c3ccccc13)CCC2` [Cpd 2, 20-(dimethylamino)-4,14,19,26-tetraazaheptacyclo[24.6.1.1^7,14.1^18,22.0^2,6.0^8,13.0^27,32]pentatriaconta-1(33),2(6),7(35),8,10,12,18(34),19,21,27,29,31-dodecaene-3,5-dione], the “Activity at Protein Kinase Assays (% of control), p70S6K(h)” value with p70S6K(h) is reported as 91 % of control. In addition, the “Activity at Protein Kinase Assays (% of control), Abl(h)” value on Abl(h) is 98 % of control. Moreover, the “Activity at Protein Kinase Assays (% of control), Blk(m)” value at Blk(m) is recorded as 70 % of control. The “Activity at Protein Kinase Assays (% of control), CDK5/p35(h)” value at CDK5/p35(h) is recorded as 105 % of control. Also, on IKKβ(h), the “Activity at Protein Kinase Assays (% of control), IKKβ(h)” value was 124 % of control. Moreover, the “Activity at Protein Kinase Assays (% of control), Lyn(h)” value on Lyn(h) was 76 % of control. Further, the “Activity at Protein Kinase Assays (% of control), MKK6(h)” value at MKK6(h) is 86 % of control. Also, the “Activity at Protein Kinase Assays (% of control), PAR-1Bα(h)” value at PAR-1Bα(h) is recorded as 100 % of control. In addition, at PKCβII(h), the “Activity at Protein Kinase Assays (% of control), PKCβII(h)” value was 68 % of control. In addition, at PKCθ(h), the “Activity at Protein Kinase Assays (% of control), PKCθ(h)” value is on record as 27 % of control. Besides, the “Activity at Protein Kinase Assays (% of control), PRAK(h)” value at PRAK(h) is recorded as 96 % of control. Also, at ROCK-II(h), the “Activity at Protein Kinase Assays (% of control), ROCK-II(h)” value is on record as 103 % of control. At ROCK-II(r), the “Activity at Protein Kinase Assays (% of control), ROCK-II(r)” value was 92 % of control. Further, on Rsk1(h), the “Activity at Protein Kinase Assays (% of control), Rsk1(h)” value is 15 % of control. In addition, the “Activity at Protein Kinase Assays (% of control), Rsk1(r)” value on Rsk1(r) is on record as 7 % of control. For the same compound, at Rsk2(h), the “Activity at Protein Kinase Assays (% of control), Rsk2(h)” value is given as 10 % of control. The “Activity at Protein Kinase Assays (% of control), Syk(h)” value at Syk(h) is reported as 101 % of control.
